Reference: BindingDB's records for doi:10.1021/jm00144a035 (1982)

Molecular target: Choline O-acetyltransferase (squid)
Assay: Inhibition of choline acetyltransferase isolated from squid head ganglia

Ki [µM] | SMILES
1.8 | Nc1c(S(=O)(=O)O)cc(Nc2ccc(Nc3nc(Nc4ccc(S(=O)(=O)O)cc4)nc(=O)[nH]3)c(S(=O)(=O)O)c2)c2c1C(=O)c1ccccc1C2=O [1-Amino-4-{4-[4-hydroxy-6-(4-sulfo-phenylamino)-[1,3,5]triazin-2-ylamino]-3-sulfo-phenylamino}-9,10-dioxo-9,10-dihydro-anthracene-2-sulfonic acid]
2.3 | CSSCCNC(=O)CCNC(=O)C(O)C(C)(C)COP(=O)(O)OP(=O)(O)OC[C@H]1O[C@@H](n2cnc3c(N)ncnc32)[C@H](O)[C@@H]1OP(=O)(O)O (some centres not stated) [Methyldisulfanyl analogue of coenzyme A]
